{
  "source": "patent US10273221B2",
  "about": "“Microbiocidal heterobicyclic derivatives” (Syngenta Participations AG, priority 2015, dated 2019)",
  "key": {"[1]": {"tested_on": "Botryotinia fuckeliana (Botrytis cinerea)", "experiment": "Botryotinia fuckeliana (Botrytis cinerea) / liquid culture (gray mould)", "type": "cell-based", "conditions": "growth inhibition determined photometrically 3-4 days after application, vs untreated control, read-out: disease control"}, "Fusarium culmorum": {"tested_on": "Fusarium culmorum", "experiment": "microbe, parasite or virus in culture", "type": "cell-based", "conditions": "72 h, read-out: disease control"}, "Gaeumannomyces graminis": {"tested_on": "Gaeumannomyces graminis", "experiment": "Gaeumannomyces graminis / liquid culture (take-all of cereals)", "type": "cell-based", "conditions": "growth inhibition determined photometrically 4-5 days after application, vs untreated control, read-out: disease control"}, "[2]": {"tested_on": "Glomerella lagenarium (Colletotrichum lagenarium)", "experiment": "Glomerella lagenarium (Colletotrichum lagenarium) / liquid culture (anthracnose)", "type": "cell-based", "conditions": "Colletotrichum orbiculare, growth inhibition measured photometrically 3-4 days after application, vs untreated control, read-out: disease control"}, "[3]": {"tested_on": "Monographella nivalis (Microdochium nivale)", "experiment": "Monographella nivalis (Microdochium nivale) / liquid culture (foot rot cereals)", "type": "cell-based", "conditions": "96 h, growth inhibition determined photometrically 4-5 days after application, vs untreated control, read-out: disease control"}, "[4]": {"tested_on": "Mycosphaerella graminicola (Septoria tritici)", "experiment": "Mycosphaerella graminicola (Septoria tritici) / liquid culture (Septoria blotch)", "type": "cell-based", "conditions": "Zymoseptoria tritici, 96 h, growth inhibition determined photometrically 4-5 days after application, vs untreated control, read-out: disease control"}, "[5]": {"tested_on": "Magnaporthe grisea (Pyricularia oryzae)", "experiment": "microbe, parasite or virus in culture", "type": "cell-based", "conditions": "72 h, read-out: control of Magnaporthe grisea"}, "Pyrenophora teres [6]": {"tested_on": "Pyrenophora teres", "experiment": "Pyrenophora teres / liquid culture (net blotch)", "type": "cell-based", "conditions": "growth inhibition determined photometrically 3-4 days after application, vs untreated control"}, "Sclerotinia sclerotiorum": {"tested_on": "Sclerotinia sclerotiorum", "experiment": "Sclerotinia sclerotiorum / liquid culture (cottony rot)", "conditions": "72 h, read-out: control of Sclerotinia sclerotiorum", "quoted_text": "Sclerotinia sclerotiorum/Liquid Culture (Cottony Rot)\nMycelia fragments of a newly grown liquid culture of the fungus are directly mixed into nutrient broth (Vogels broth). After placing a (DMSO) solution of test compound into a microtiter plate (96-well format) the nutrient broth containing the fungal material is added. The test plates are incubated at 24° C. and the inhibition of growth is determined photometrically 3-4 days after application."}, "Pyrenophora teres [7]": {"tested_on": "Pyrenophora teres", "experiment": "Pyrenophora teres / barley / leaf disc preventative (net blotch)", "type": "in vivo", "conditions": "200 ppm, barley leaf segments cv. Hasso, inoculated 2 days after application, assessed 5-7 days after application", "method": "Pyrenophora teres/Barley/Leaf Disc Preventative (Net Blotch)\nBarley leaf segments cv. Hasso are placed on agar in a multiwell plate (24-well format) and sprayed with the formulated test compound diluted in water. The leaf segmens are inoculated with a spore suspension of the fungus 2 days after application. The inoculated leaf segments are incubated at 20° C. and 65% rh under a light regime of 12 h light/12 h darkness in a climate cabinet and the activity of a compound is assessed as disease control compared to untreated when an appropriate level of disease damage appears in untreated check leaf segments (5-7 days after application)."}},
  "data": [
    {"smiles": "Cc1cccc2c1ncn2C1=NC(C)(C)C(C)(C)c2c(F)cccc21", "note": "[E-1]", "values": [
      {"measurement": "inhibition of growth at 200 ppm", "setting": "[1]", "value": "≥ 80", "unit": "%"},
      {"measurement": "inhibition of growth at 200 ppm", "setting": "Fusarium culmorum", "value": "≥ 80", "unit": "%"},
      {"measurement": "inhibition of growth at 200 ppm", "setting": "Gaeumannomyces graminis", "value": "≥ 80", "unit": "%"},
      {"measurement": "inhibition of growth at 200 ppm", "setting": "[2]", "value": "≥ 80", "unit": "%"},
      {"measurement": "inhibition of growth at 200 ppm", "setting": "[3]", "value": "≥ 80", "unit": "%"},
      {"measurement": "inhibition of growth at 200 ppm", "setting": "[4]", "value": "≥ 80", "unit": "%"},
      {"measurement": "inhibition of growth at 20 ppm", "setting": "[5]", "value": "≥ 80", "unit": "%"},
      {"measurement": "inhibition of growth at 20 ppm", "setting": "Pyrenophora teres [6]", "value": "≥ 80", "unit": "%"},
      {"measurement": "melting point", "value": "45 to 46", "unit": "°C"},
      {"measurement": "inhibition of growth at 20 ppm", "setting": "Sclerotinia sclerotiorum", "value": "≥ 80", "unit": "%"}
    ]},
    {"smiles": "Cc1cccc2c1ncn2C1=NC(C)(C)C(C)(C)c2ccccc21", "note": "[E-16]", "values": [
      {"measurement": "inhibition of growth at 200 ppm", "setting": "[1]", "value": "≥ 80", "unit": "%"},
      {"measurement": "inhibition of growth at 200 ppm", "setting": "Fusarium culmorum", "value": "≥ 80", "unit": "%"},
      {"measurement": "inhibition of growth at 200 ppm", "setting": "Gaeumannomyces graminis", "value": "≥ 80", "unit": "%"},
      {"measurement": "inhibition of growth at 200 ppm", "setting": "[2]", "value": "≥ 80", "unit": "%"},
      {"measurement": "inhibition of growth at 200 ppm", "setting": "[3]", "value": "≥ 80", "unit": "%"},
      {"measurement": "inhibition of growth at 20 ppm", "setting": "[5]", "value": "≥ 80", "unit": "%"},
      {"measurement": "control of Pyrenophora teres", "setting": "Pyrenophora teres [7]", "value": "at least 80%"},
      {"measurement": "inhibition of growth at 20 ppm", "setting": "Pyrenophora teres [6]", "value": "≥ 80", "unit": "%"},
      {"measurement": "inhibition of growth at 20 ppm", "setting": "Sclerotinia sclerotiorum", "value": "≥ 80", "unit": "%"}
    ]}
  ]
}
